Experiments:
RAW264.7 [1] = test: Anti-inflammatory activity in mouse RAW264.7 cells assessed as inhibition of LPS-induced NO production preincubated for 1 hr followed by LPS-stimulation and measured after 18 hrs by Griess reagent-based assay; format: functional, cell-based
RAW264.7 [2] = test: Cytotoxicity against mouse RAW264.7 cells at anti-inflammatory IC50 after 19 hrs by MTT assay; format: cell-based; conditions: raw264.7, 19 h
RAW264.7 [3] = test: Anti-inflammatory activity in mouse LPS-stimulated RAW264.7 cells assessed as decrease in PGE2 levels at preincubated for 1 hr followed by LPS-stimulation and measured after 12 hrs by ELISA; format: functional, cell-based
RAW264.7 [4] = test: Anti-inflammatory activity in mouse LPS-stimulated RAW264.7 cells assessed as decrease in IL1beta levels preincubated for 1 hr followed by LPS-stimulation and measured after 12 hrs by ELISA; format: functional, cell-based
RAW264.7 [5] = test: Anti-inflammatory activity in mouse LPS-stimulated RAW264.7 cells assessed as decrease in IL6 levels preincubated for 1 hr followed by LPS-stimulation and measured after 12 hrs by ELISA; format: functional, cell-based
RAW264.7 [6] = test: Anti-inflammatory activity in mouse LPS-stimulated RAW264.7 cells assessed as decrease in TNFalpha levels preincubated for 1 hr followed by LPS-stimulation and measured after 12 hrs by ELISA; format: functional, cell-based
RAW264.7 [7] = test: Anti-inflammatory activity in mouse LPS-stimulated RAW264.7 cells assessed as decrease in iNOS protein levels preincubated for 1 hr followed by LPS-stimulation and measured after 16 hrs by Western blot analysis; format: functional, cell-based
RAW264.7 [8] = test: Anti-inflammatory activity in mouse LPS-stimulated RAW264.7 cells assessed as decrease in COX2 protein levels preincubated for 1 hr followed by LPS-stimulation and measured after 16 hrs by Western blot analysis; format: functional, cell-based

Row | Compound | IC50 (RAW264.7 [1]) [µM] | Activity (RAW264.7 [2]) | also measured
1 | CC1(C)CC[C@]2(C(=O)O[C@@H]3O[C@H](CO[C@@H]4O[C@H](CO)[C@@H](O)[C@H](O)[C@H]4O)[C@@H](O)[C@H](O)[C@H]3O)CC[C@]3(C)C(=CC[C@@H]4[C@@]5(C)CC[C@H](O[C@@H]6OC[C@H](O)[C@H](O[C@@H]7O[C@H](CO)[C@@H](O)[C@H](O)[C@H]7O)[C@H]6O)C(C)(C)[C@@H]5CC[C@]43C)[C@@H]2C1 | > 50 | Non-Toxic | 
2 | C[C@@H]1C[C@H]2[C@@H]3CCC4=CC(=O)C=C[C@]4(C)[C@@]3(F)[C@@H](O)C[C@]2(C)[C@@]1(O)C(=O)CO [DEXAMETHASONE] | 0.13 | Non-Toxic | 
3 | CC1(C)CC[C@]2(C(=O)O)CC[C@]3(C)C(=CC[C@@H]4[C@@]5(C)CC[C@H](O[C@@H]6OC[C@H](O)[C@H](O)[C@H]6O[C@@H]6O[C@H](CO)[C@@H](O)[C@H](O)[C@H]6O)C(C)(C)[C@@H]5CC[C@]43C)[C@@H]2C1 | 1.82 | Non-Toxic | inhibition (RAW264.7 [3]): Dose-dependent effect; inhibition (RAW264.7 [4]): Dose-dependent effect; inhibition (RAW264.7 [5]): Dose-dependent effect; inhibition (RAW264.7 [6]): Dose-dependent effect; inhibition (RAW264.7 [7]): Dose-dependent effect; inhibition (RAW264.7 [8]): Dose-dependent effect
4 | CC1(C)CC[C@]2(C(=O)O[C@@H]3O[C@H](CO[C@@H]4O[C@H](CO)[C@@H](O)[C@H](O)[C@H]4O)[C@@H](O)[C@H](O)[C@H]3O)CC[C@]3(C)C(=CC[C@@H]4[C@@]5(C)CC[C@H](O)[C@@](C)(CO)[C@@H]5CC[C@]43C)[C@@H]2C1 [DIPSACUSSAPONIN A] | > 50 | Non-Toxic | 
5 | C=C1CC[C@]2(C(=O)O[C@@H]3O[C@H](CO[C@@H]4O[C@H](CO)[C@@H](O[C@@H]5O[C@@H](C)[C@H](O)[C@@H](O)[C@H]5O)[C@H](O)[C@H]4O)[C@@H](O)[C@H](O)[C@H]3O)CC[C@]3(C)C(=CC[C@@H]4[C@@]5(C)CC[C@H](O)C(C)(C)[C@@H]5CC[C@]43C)[C@@H]2C1 | > 50 | Non-Toxic | 
6 | C[C@@H]1O[C@@H](O[C@H]2[C@H](O[C@H]3CC[C@@]4(C)[C@@H](CC[C@]5(C)[C@@H]4CC=C4[C@@H]6CC(C)(C)CC[C@]6(C(=O)O[C@@H]6O[C@H](CO[C@@H]7O[C@H](CO)[C@@H](O[C@@H]8O[C@@H](C)[C@H](O)[C@@H](O)[C@H]8O)[C@H](O)[C@H]7O)[C@@H](O)[C@H](O)[C@H]6O)CC[C@]45C)[C@]3(C)CO)OC[C@H](O)[C@@H]2O)[C@H](O)[C@H](O)[C@H]1O [KALOPANAXSAPONIN B] | > 50 | Non-Toxic | 
7 | CC1(C)CC[C@]2(C(=O)O[C@@H]3O[C@H](CO[C@@H]4O[C@H](CO)[C@@H](O)[C@H](O)[C@H]4O)[C@@H](O)[C@H](O)[C@H]3O)CC[C@]3(C)C(=CC[C@@H]4[C@@]5(C)CC[C@H](O[C@@H]6OC[C@H](O)[C@H](O)[C@H]6O[C@@H]6O[C@H](CO)[C@@H](O)[C@H](O)[C@H]6O)[C@@](C)(CO)[C@@H]5CC[C@]43C)[C@@H]2C1 | > 50 | Non-Toxic | 
8 | C[C@@H]1O[C@@H](O[C@H]2[C@H](O[C@H]3CC[C@]4(C)[C@H]5CC=C6[C@@H]7CC(C)(C)CC[C@]7(C(=O)O)CC[C@@]6(C)[C@]5(C)CC[C@H]4C3(C)C)OC[C@H](O)[C@@H]2O[C@@H]2O[C@H](CO)[C@@H](O)[C@H](O)[C@H]2O)[C@H](O)[C@H](O)[C@H]1O | > 50 | Non-Toxic | 
9 | CC1(C)CC[C@]2(C(=O)O[C@@H]3O[C@H](CO[C@@H]4O[C@H](CO)[C@@H](O)[C@H](O)[C@H]4O)[C@@H](O)[C@H](O)[C@H]3O)CC[C@]3(C)C(=CC[C@@H]4[C@@]5(C)CC[C@H](O)C(C)(C)[C@@H]5CC[C@]43C)[C@@H]2C1 | > 50 | Non-Toxic | 
10 | C=C1CC[C@]2(C(=O)O[C@@H]3O[C@H](CO[C@@H]4O[C@H](CO)[C@@H](O)[C@H](O)[C@H]4O)[C@@H](O)[C@H](O)[C@H]3O)CC[C@]3(C)C(=CC[C@@H]4[C@@]5(C)CC[C@H](O)C(C)(C)[C@@H]5CC[C@]43C)[C@@H]2C1 | > 50 | Non-Toxic | 
11 | C=C1CC[C@]2(C(=O)O[C@@H]3O[C@H](CO[C@@H]4O[C@H](CO)[C@@H](O[C@@H]5O[C@@H](C)[C@H](O)[C@@H](O)[C@H]5O)[C@H](O)[C@H]4O)[C@@H](O)[C@H](O)[C@H]3O)CC[C@]3(C)C(=CC[C@@H]4[C@@]5(C)CC[C@H](O[C@@H]6OC[C@H](O)[C@H](O)[C@H]6O)[C@@](C)(CO)[C@@H]5CC[C@]43C)[C@@H]2C1 | > 50 | Non-Toxic | 
12 | C=C1CC[C@]2(C(=O)O)CC[C@]3(C)C(=CC[C@@H]4[C@@]5(C)CC[C@H](O[C@@H]6OC[C@H](O)[C@H](O)[C@H]6O[C@@H]6O[C@H](CO)[C@@H](O)[C@H](O)[C@H]6O)C(C)(C)[C@@H]5CC[C@]43C)[C@@H]2C1 | 16.6 | Non-Toxic | 
13 | CC1(C)CC[C@]2(C(=O)O)CC[C@]3(C)C(=CC[C@@H]4[C@@]5(C)CC[C@H](O)[C@@](C)(CO[C@@H]6O[C@H](CO[C@@H]7O[C@H](CO)[C@@H](O)[C@H](O)[C@H]7O)[C@@H](O)[C@H](O)[C@H]6O)[C@@H]5CC[C@]43C)[C@@H]2C1 | > 50 | Non-Toxic | 
14 | CC1(C)CC[C@]2(C(=O)O[C@@H]3O[C@H](CO[C@@H]4O[C@H](CO)[C@@H](O)[C@H](O)[C@H]4O)[C@@H](O)[C@H](O)[C@H]3O)CC[C@]3(C)C(=CC[C@@H]4[C@@]5(C)CC[C@H](O[C@@H]6OC[C@H](O)[C@H](O)[C@H]6O[C@@H]6O[C@H](CO)[C@@H](O)[C@H](O)[C@H]6O)C(C)(C)[C@@H]5CC[C@]43C)[C@@H]2C1 | > 50 | Non-Toxic | 
15 | C[C@@H]1O[C@@H](O[C@H]2[C@H](O)[C@@H](O)[C@H](OC[C@H]3O[C@@H](OC(=O)[C@]45CCC(C)(C)C[C@H]4C4=CC[C@@H]6[C@@]7(C)CC[C@H](O)C(C)(C)[C@@H]7CC[C@@]6(C)[C@]4(C)CC5)[C@H](O)[C@@H](O)[C@@H]3O)O[C@@H]2CO)[C@H](O)[C@H](O)[C@H]1O [CIRENSENOSIDE O] | > 50 | Non-Toxic | 
16 | CC1(C)CC[C@]2(C(=O)O)CC[C@]3(C)C(=CC[C@@H]4[C@@]5(C)CC[C@H](O)[C@@](C)(CO[C@@H]6O[C@H](CO)[C@@H](O)[C@H](O)[C@H]6O)[C@@H]5CC[C@]43C)[C@@H]2C1 | > 50 | Non-Toxic | 
17 | C=C1CC[C@]2(C(=O)O[C@@H]3O[C@H](CO[C@@H]4O[C@H](CO)[C@@H](O)[C@H](O)[C@H]4O)[C@@H](O)[C@H](O)[C@H]3O)CC[C@]3(C)C(=CC[C@@H]4[C@@]5(C)CC[C@H](O[C@@H]6OC[C@H](O)[C@H](O)[C@H]6O[C@@H]6O[C@H](CO)[C@@H](O)[C@H](O)[C@H]6O)C(C)(C)[C@@H]5CC[C@]43C)[C@@H]2C1 | > 50 | Non-Toxic | 
18 | CC1(C)CC[C@]2(C(=O)O[C@@H]3O[C@H](CO[C@@H]4O[C@H](CO)[C@@H](O)[C@H](O)[C@H]4O)[C@@H](O)[C@H](O)[C@H]3O)CC[C@]3(C)C(=CC[C@@H]4[C@@]5(C)CC[C@H](O[C@@H]6OC[C@H](O)[C@H](O)[C@H]6O)[C@@](C)(CO)[C@@H]5CC[C@]43C)[C@@H]2C1 | > 50 | Non-Toxic | 
19 | CC1(C)CC[C@]2(C(=O)O[C@@H]3O[C@H](CO)[C@@H](O)[C@H](O)[C@H]3O)CC[C@]3(C)C(=CC[C@@H]4[C@@]5(C)CC[C@H](O)C(C)(C)[C@@H]5CC[C@]43C)[C@@H]2C1 | > 50 | Non-Toxic | 
20 | C[C@@H]1O[C@@H](O[C@H]2[C@H](O)[C@@H](O)[C@H](OC[C@H]3O[C@@H](OC(=O)[C@]45CCC(C)(C)C[C@H]4C4=CC[C@@H]6[C@@]7(C)CC[C@H](O[C@@H]8OC[C@H](O)[C@H](O)[C@H]8O)[C@@](C)(CO)[C@@H]7CC[C@@]6(C)[C@]4(C)CC5)[C@H](O)[C@@H](O)[C@@H]3O)O[C@@H]2CO)[C@H](O)[C@H](O)[C@H]1O [CAULOSIDE D] | > 50 | Non-Toxic | 
21 | CC1(C)CC[C@]2(C(=O)O[C@@H]3O[C@H](CO[C@@H]4O[C@H](CO)[C@@H](O)[C@H](O)[C@H]4O)[C@@H](O)[C@H](O)[C@H]3O)CC[C@]3(C)C(=CC[C@@H]4[C@@]5(C)CC[C@H](O[C@@H]6OC[C@H](O)[C@H](O)[C@H]6O)C(C)(C)[C@@H]5CC[C@]43C)[C@@H]2C1 | > 50 | Non-Toxic | 
22 | C=C1CC[C@]2(C(=O)O[C@@H]3O[C@H](CO[C@@H]4O[C@H](CO)[C@@H](O)[C@H](O)[C@H]4O)[C@@H](O)[C@H](O)[C@H]3O)CC[C@]3(C)C(=CC[C@@H]4[C@@]5(C)CC[C@H](O)[C@@](C)(CO)[C@@H]5CC[C@]43C)[C@@H]2C1 | > 50 | Non-Toxic | 
23 | C[C@@H]1O[C@@H](O[C@H]2[C@H](O)[C@@H](O)[C@H](OC[C@H]3O[C@@H](OC(=O)[C@]45CCC(C)(C)C[C@H]4C4=CC[C@@H]6[C@@]7(C)CC[C@H](O)[C@@](C)(CO)[C@@H]7CC[C@@]6(C)[C@]4(C)CC5)[C@H](O)[C@@H](O)[C@@H]3O)O[C@@H]2CO)[C@H](O)[C@H](O)[C@H]1O [KIZUTA CIRENSENOSIDE O SAPONIN K3] | > 50 | Non-Toxic | 
